compound: COc1cc(Nc2ncc(F)c(Nc3ccc4c(n3)NC(=O)C(C)(C)O4)n2)cc(OC)c1OC [R406] + NC(=O)Nc1cc(-c2cccc(F)c2)sc1C(=O)N[C@H]1CCCNC1 [AZD7762] (partner 0.2 µM); assay: relative viability (nuclei count vs DMSO), 5 days (fraction); higher = more cells survive; details: first compound 0.08 µM
In short: (§1)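 Five library-drug doses in √10 steps were combined with a fixed anchor-drug dose, or a single drug was given alone, by pin tool to lung cancer cell lines in 1536-well plates the day after seeding. Nuclei were stained and counted after 5 days. Relative viability is the nuclei count in treated wells over that in vehicle wells, taken as the median of duplicate plates.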

Going from NCI-H522 to NCI-H2342, the relative viability falls from 0.914 to 0.505.

Going from NCI-H838 to NCI-H1703, the relative viability falls from 0.915 to 0.144.

First: NCI-H1993
Second: NCI-H441
The relative viability of the first is lower: 0.741 for the first, 1.03 for the second.

First: PC-14
Second: LCLC-103H
The relative viability of the first is lower: 0.296 for the first, 0.662 for the second.

Compared with NCI-H596, NCI-H2126 is lower in relative viability: 1.08 for the first, 0.937 for the second.

Going from EMC-BAC-2 to NCI-H2085, the relative viability falls from 1.05 to 1.03.

Going from HCC-366 to NCI-H1666, the relative viability rises from 0.269 to 1.12.

NCI-H647 and LK-2 are the same in relative viability: 0.373 for the first, 0.373 for the second.

First: NCI-H2087
Second: NCI-H358
The relative viability of the first is higher: 1.36 for the first, 0.502 for the second.

Compared with NCI-H2170, H3255 is higher in relative viability: 0.81 for the first, 0.923 for the second.

First: ChaGo-K-1
Second: HCC-44
The relative viability of the first is lower: 0.799 for the first, 0.974 for the second.

Going from SW 900 to NCI-H1792, the relative viability rises from 0.536 to 0.75.

With NCI-H1648 the relative viability was 0.719.

same assay, conditions: first compound 0.253 µM

Compared with NCI-H522, NCI-H2342 is lower in relative viability: 0.921 for the first, 0.53 for the second.

Going from NCI-H838 to NCI-H1703, the relative viability falls from 1.02 to 0.137.

First: NCI-H1993
Second: NCI-H441
The relative viability of the first is higher: 1.1 for the first, 1.03 for the second.

Compared with PC-14, LCLC-103H is higher in relative viability: 0.435 for the first, 0.844 for the second.

Going from NCI-H596 to NCI-H2126, the relative viability rises from 1.1 to 1.12.

Compared with EMC-BAC-2, NCI-H2085 is lower in relative viability: 1.26 for the first, 1 for the second.

Compared with HCC-366, NCI-H1666 is higher in relative viability: 0.294 for the first, 0.937 for the second.

Going from NCI-H647 to LK-2, the relative viability falls from 0.419 to 0.407.

First: NCI-H2087
Second: NCI-H358
The relative viability of the first is higher: 1.47 for the first, 0.472 for the second.

Going from NCI-H2170 to H3255, the relative viability rises from 0.766 to 0.983.

Compared with ChaGo-K-1, HCC-44 is higher in relative viability: 0.957 for the first, 1.01 for the second.

First: SW 900
Second: NCI-H1792
The relative viability of the first is higher: 0.814 for the first, 0.615 for the second.

Cell Line NCI-H1648 has a relative viability of 0.618.

same assay, conditions: first compound 0.8 µM

Compared with NCI-H522, NCI-H2342 is lower in relative viability: 0.813 for the first, 0.476 for the second.

Going from NCI-H838 to NCI-H1703, the relative viability falls from 1.04 to 0.115.

Compared with NCI-H1993, NCI-H441 is higher in relative viability: 0.727 for the first, 1.26 for the second.

Compared with PC-14, LCLC-103H is higher in relative viability: 0.418 for the first, 0.813 for the second.

First: NCI-H596
Second: NCI-H2126
The relative viability of the first is lower: 0.977 for the first, 1.08 for the second.

First: EMC-BAC-2
Second: NCI-H2085
The relative viability of the first is higher: 1.17 for the first, 1.02 for the second.

First: HCC-366
Second: NCI-H1666
The relative viability of the first is lower: 0.368 for the first, 0.893 for the second.

Compared with NCI-H647, LK-2 is lower in relative viability: 0.467 for the first, 0.333 for the second.

Going from NCI-H2087 to NCI-H358, the relative viability falls from 1.33 to 0.509.

Going from NCI-H2170 to H3255, the relative viability falls from 0.948 to 0.823.

First: ChaGo-K-1
Second: HCC-44
The relative viability of the first is higher: 0.999 for the first, 0.995 for the second.

Compared with SW 900, NCI-H1792 is higher in relative viability: 0.787 for the first, 0.908 for the second.

NCI-H1648 gave a relative viability of 0.67.

same assay, conditions: first compound 2.53 µM

First: NCI-H522
Second: NCI-H2342
The relative viability of the first is higher: 0.823 for the first, 0.433 for the second.

Going from NCI-H838 to NCI-H1703, the relative viability falls from 0.853 to 0.105.

Compared with NCI-H1993, NCI-H441 is higher in relative viability: 0.719 for the first, 0.953 for the second.

Compared with PC-14, LCLC-103H is higher in relative viability: 0.403 for the first, 0.747 for the second.

Compared with NCI-H596, NCI-H2126 is higher in relative viability: 0.825 for the first, 0.909 for the second.

Going from EMC-BAC-2 to NCI-H2085, the relative viability falls from 1.04 to 0.72.

Compared with HCC-366, NCI-H1666 is higher in relative viability: 0.267 for the first, 0.892 for the second.

Going from NCI-H647 to LK-2, the relative viability falls from 0.413 to 0.354.

Compared with NCI-H2087, NCI-H358 is lower in relative viability: 1.06 for the first, 0.272 for the second.

Compared with NCI-H2170, H3255 is higher in relative viability: 0.596 for the first, 0.774 for the second.

Going from ChaGo-K-1 to HCC-44, the relative viability rises from 0.873 to 1.03.

Going from SW 900 to NCI-H1792, the relative viability rises from 0.232 to 0.283.

In the case of NCI-H1648, the relative viability is reported as 0.554.

same assay, conditions: first compound 8 µM

Compared with NCI-H522, NCI-H2342 is lower in relative viability: 0.765 for the first, 0.392 for the second.

Going from NCI-H838 to NCI-H1703, the relative viability falls from 0.741 to 0.112.

Going from NCI-H1993 to NCI-H441, the relative viability rises from 0.537 to 0.958.

Going from PC-14 to LCLC-103H, the relative viability rises from 0.281 to 0.569.

Going from NCI-H596 to NCI-H2126, the relative viability rises from 0.836 to 0.858.

Going from EMC-BAC-2 to NCI-H2085, the relative viability rises from 0.391 to 0.726.

First: HCC-366
Second: NCI-H1666
The relative viability of the first is lower: 0.243 for the first, 0.773 for the second.

Going from NCI-H647 to LK-2, the relative viability falls from 0.29 to 0.104.

Going from NCI-H2087 to NCI-H358, the relative viability falls from 1.25 to 0.217.

Compared with NCI-H2170, H3255 is higher in relative viability: 0.708 for the first, 0.747 for the second.

Compared with ChaGo-K-1, HCC-44 is higher in relative viability: 0.744 for the first, 1.18 for the second.

Compared with SW 900, NCI-H1792 is higher in relative viability: 0.146 for the first, 0.378 for the second.

NCI-H1648 was tested, and the relative viability was 0.633.

compound: COc1cc(Nc2ncc(F)c(Nc3ccc4c(n3)NC(=O)C(C)(C)O4)n2)cc(OC)c1OC [R406] + COc1cc2c(Oc3ccc(NC(=O)C4(C(=O)Nc5ccc(F)cc5)CC4)cc3F)ccnc2cc1OCCCN1CCOCC1 [Foretinib] (partner 0.25 µM); assay: as above; details: first compound 0.08 µM
In short: as §1

First: NCI-H2342
Second: NCI-H838
The relative viability of the first is lower: 0.889 for the first, 0.984 for the second.

First: NCI-H1650
Second: EBC-1
The relative viability of the first is higher: 1.28 for the first, 0.102 for the second.

First: NCI-H1703
Second: NCI-H1993
The relative viability of the first is lower: 0.346 for the first, 0.72 for the second.

Compared with NCI-H441, PC-14 is higher in relative viability: 0.863 for the first, 0.919 for the second.

First: LCLC-103H
Second: NCI-H596
The relative viability of the first is lower: 0.758 for the first, 0.926 for the second.

Going from NCI-H2126 to EMC-BAC-2, the relative viability falls from 1.16 to 0.98.

First: NCI-H2085
Second: Calu-6
The relative viability of the first is higher: 0.847 for the first, 0.842 for the second.

Compared with HCC-366, NCI-H1666 is lower in relative viability: 0.957 for the first, 0.926 for the second.

Going from NCI-H647 to LK-2, the relative viability falls from 1.24 to 1.14.

First: NCI-H2087
Second: NCI-H358
The relative viability of the first is higher: 1.2 for the first, 0.75 for the second.

Going from NCI-H2170 to H3255, the relative viability falls from 0.964 to 0.868.

First: COR-L23
Second: COR-L 105
The relative viability of the first is higher: 0.925 for the first, 0.898 for the second.

Compared with IA-LM, ChaGo-K-1 is lower in relative viability: 1.23 for the first, 0.926 for the second.

Compared with A549, SK-MES-1 is lower in relative viability: 0.961 for the first, 0.892 for the second.

First: SW 900
Second: NCI-H2009
The relative viability of the first is lower: 0.769 for the first, 1.19 for the second.

First: NCI-H520
Second: SW 1573
The relative viability of the first is lower: 0.831 for the first, 0.908 for the second.

NCI-H1299 showed a relative viability of 1.01.

Reference: the supplement of paper PMC10307832
